Results published in patent EP3186387B1, “METHOD OF DETERMINING THE ACTIVITY OF ENZYMES CONVERTING CYTOSINE DERIVATIVES TO URACIL DERIVATIVES IN CELLS, TISSUES AND ORGANISMS” (Univerzita Palackého v Olomouci, priority 2014, dated 2016).

Test system: HeLa cells
Assay: Determination of the deamination activity in adherent HeLa cells: signal of EdU/EdC in DNA, detected by anti-bromodeoxyuridine antibody or click reaction
Format: cell-based, Human
Conditions: for ratios of EC50 in EdU and EdC (KEdU½/KEdC½): two hours of incubation, without FdU
Excerpt: • Figure 1 The metabolism of EdC and EdCMP from the perspective of the deamination activity of some known deaminases in human cells. CDA - 2'-deoxycytidine/cytidine deaminase; dCK - 2'-deoxycytidine kinase; dCMPDA - 2'-deoxycytidine-5'-phosphate deaminase; cdN and mdN - cytosolic and mitochondrial pyrimidine specific 5'-deoxynucleotidase • Figure 2: Schematic depiction of determination of the activity of the enzymes transforming cytosine derivatives into uracil derivatives. • Figure 3: Determination of the deamination activity in HeLa cells using specific antibodies or using a click reaction (Example 1). The figure depicts the dependence of the average intensity of the signals on the used concentrations of EdU or EdC after two hours of incubation with various concentrations of EdU or EdC without the addition of FdU. Two methods were used for the detection of both modified nucleosides: A) detection with a click reaction with an azido dye (Alexa Fluor 488- azide); B) detection using primary anti-bromodeoxyuridine antibody and secondary antibody conjugated with Alexa Fluor 488. The measured intensities of the signals were processed in the Sigma Plot software, in which the curve was constructed and the half of maximal effective concentration (EC50) was determined. It is clear from the course of the graphs that EdC is not likely to be incorporated in the DNA. This was confirmed also by the mutual ratios between the measured values of the intensities obtained by the antibodies and by the click reaction. These ratios were 1.099 for EdU and 1.060 for EdC. […] For the determination, it is also possible to use other measured concentrations, because there was no saturation of the signal even at higher concentrations. • Figure 4 Time curve (Example 1). […] The incorporated nucleosides were detected using a click reaction with azidofluorochrome. • Figure 5: The comparison of the incorporation of FU and FC into HeLa cells when using various concentrations (Example 1). […] EdU was detected with antibodies. […]

C#Cc1cn([C@H]2C[C@H](O)[C@@H](CO)O2)c(=O)nc1N [EdC, 5-ethynyl-2'-deoxycytidine]
concentration of EdU providing approximately such a signal as 5 µmol.l^-1 EdC (EdC around 5 µmol.l^-1, not in the saturation area): ~0.55 µmol/L
ratios of EC50 in EdU and EdC (KEdU½/KEdC½) (detection performed by the antibodies): 0.23
ratios of EC50 in EdU and EdC (KEdU½/KEdC½) (detection performed by the click reaction): 0.32
